The target of one data set is human H4 receptor (Homo sapiens, UniProt Q9H3N8). The data set can be described thus: biochemical.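 Further: radioligand displacement of a [3H]-labelled ligand from membranes of CHO cells stably expressing human H4 receptor, bound radioactivity counted on filters by liquid scintillation.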

Structures are written as SMILES. Where only a bound is given, the exact number is not on record here.

human H4 receptor, sequence (Q9H3N8 whole entry): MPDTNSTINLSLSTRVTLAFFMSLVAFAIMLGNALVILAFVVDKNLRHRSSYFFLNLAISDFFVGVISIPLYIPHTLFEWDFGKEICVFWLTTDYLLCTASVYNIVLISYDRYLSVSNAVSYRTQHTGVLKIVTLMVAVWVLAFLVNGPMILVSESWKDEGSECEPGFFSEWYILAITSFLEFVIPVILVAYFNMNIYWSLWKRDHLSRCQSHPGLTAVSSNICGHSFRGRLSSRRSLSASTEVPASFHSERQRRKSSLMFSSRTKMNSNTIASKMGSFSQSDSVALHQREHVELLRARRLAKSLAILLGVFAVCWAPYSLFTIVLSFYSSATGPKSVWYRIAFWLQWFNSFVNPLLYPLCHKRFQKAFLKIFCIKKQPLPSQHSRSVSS

On to `CCCNC(=O)c1nc2n(c1C)CCc1ccccc1C2OC1CCN(C)CC1` (stereo not drawn) [Example 205, 1-methyl-4-(1-methylpiperidin-4-yloxy)-9,10-dihydro-4H-3,10a-diaza-benzo[f]azulene-2-carboxylic acid propylamide], for which the melting point (as a rule, the temperature of the solid-liquid transition) is 60 °C. Moreover, at human H4 receptor, the Ki – broadly, a dissociation constant, usually derived from enzyme kinetics or from competition with a known ligand – is < 1000 nM.
Taken in the same sequence, the figures for `CCCNC(=O)Nc1ccc(-c2cn3c(n2)C(OC2CCN(C)CC2)c2ccccc2CC3)cc1` (stereo not drawn) [Example 60, 1-{4-[4-(1-methylpiperidin-4-yloxy)-9,10-dihydro-4H-3,10a-diaza-benzo[f]azulen-2-yl]-phenyl}-3-propyl-urea] were 130 °C and < 300 nM.
`COc1cccc(-c2cccc3c2CCn2cc(-c4ccccc4)nc2C3OC2CCN(C)CC2)c1` (stereo not drawn) [Example 241, 8-(3-methoxyphenyl)-4-(1-methylpiperidin-4-yloxy)-2-phenyl-9,10-dihydro-4H-3,10a-diaza-benzo[f]azulene]: the melting point was found to be 93 °C. Besides, the Ki on human H4 receptor was < 300 nM.
As for `CN1CCC(OC2c3cccc(-c4ccc(F)cc4)c3CCn3cc(-c4ccccc4)nc32)CC1` (stereo not drawn) [Example 240, 8-(4-fluorophenyl)-4-(1-methylpiperidin-4-yloxy)-2-phenyl-9,10-dihydro-4H-3,10a-diaza-benzo[f]azulene], the melting point stood at 95 °C. For the same compound, at human H4 receptor, the Ki was < 300 nM.
Taken in the same sequence, the figures for `Cc1c(C(=O)c2ccccc2)nc2n1CCc1ccccc1C2OC1CCN(C)CC1.O=CO` (stereo not drawn) [Example 202, [1-methyl-4-(1-methylpiperidin-4-yloxy)-9,10-dihydro-4H-3,10a-diaza-benzo[f]azulen-2-yl]phenylmethanone, formic acid salt] were 71 °C and < 1000 nM.
In the case of `Cc1cccc2c1CCn1cc(-c3ccccc3)nc1C2OC1CCN(C)CC1` (stereo not drawn) [Example 236, 8-methyl-4-(1-methylpiperidin-4-yloxy)-2-phenyl-9,10-dihydro-4H-3,10a-diaza-benzo[f]azulene], the melting point was 71 °C. For the same compound, on human H4 receptor, the Ki is < 300 nM.
In turn, `CCCc1c(-c2ccccc2)nc2n1CCc1ccccc1C2OC1CCN(C)CC1` (stereo not drawn) [Example 238, 4-(1-methylpiperidin-4-yloxy)-2-phenyl-1-propyl-9,10-dihydro-4H-3,10a-diaza-benzo[f]azulene] yielded a melting point of 144 °C. On human H4 receptor, the Ki was < 300 nM.
The corresponding values for `CN1CCC(OC2c3ccccc3CCn3c2nc(-c2ccccc2)c3C=O)CC1` (stereo not drawn) [Example 262, 4-(1-methylpiperidin-4-yloxy)-2-phenyl-9,10-dihydro-4H-3,10a-diaza-benzo[f]azulene-1-carbaldehyde] are 70 °C and < 300 nM.
The corresponding values for `CN1CCC(OC2c3ccccc3CCn3c2nc(I)c3C(N)=O)CC1` (stereo not drawn) [Example 253, 2-iodo-4-(1-methylpiperidin-4-yloxy)-9,10-dihydro-4H-3,10a-diaza-benzo[f]azulene-1-carboxylic acid amide] are 85 °C and < 1000 nM.
Compound `CSc1cccc2c1CCn1cc(-c3ccccc3)nc1C2OC1CCN(C)CC1` (stereo not drawn) [Example 234, 4-(1-methylpiperidin-4-yloxy)-8-methylsulfanyl-2-phenyl-9,10-dihydro-4H-3,10a-diaza-benzo[f]azulene] came in with a melting point of 134 °C. Besides, on human H4 receptor, the Ki was < 1000 nM.
Taken in the same sequence, the figures for `CN1CCC(OC2c3cccc(Br)c3CCn3cc(-c4ccccc4)nc32)CC1` (stereo not drawn) [Example 231, 8-Bromo-4-(1-methyl-piperidin-4-yloxy)-2-phenyl-9,10-dihydro-4H-3,10a-diaza-benzo[f]azulene] were 83 °C and < 300 nM.
The corresponding values for `CN1CCC(OC2c3ccccc3CC(C)(C)n3cc(-c4ccccc4)nc32)CC1` (stereo not drawn) [Example 230, 10,10-dimethyl-4-(1-methylpiperidin-4-yloxy)-2-phenyl-9,10-dihydro-4H-3,10a-diaza-benzo[f]azulene] are 85 °C and < 1000 nM.
As to `CN1CCC(OC2c3cccc(OCc4ccccc4)c3CCn3cc(-c4ccccc4)nc32)CC1` (stereo not drawn) [Example 248, 8-benzyloxy-4-(1-methylpiperidin-4-yloxy)-2-phenyl-9,10-dihydro-4H-3,10a-diaza-benzo[f]azulene], the melting point was 68 °C. The Ki at human H4 receptor is < 1000 nM.
Compound `CN1CCC(OC2c3ccccc3CCn3c2nc(-c2ccccc2)c3I)CC1` (stereo not drawn) [Example 247, 1-iodo-4-(1-methylpiperidin-4-yloxy)-2-phenyl-9,10-dihydro-4H-3,10a-diaza-benzo[f]azulene] registered a melting point of 153 °C. The Ki on human H4 receptor was < 30 nM.
The corresponding values for `Cc1c(I)nc2n1CCc1ccccc1C2OC1CCN(C)CC1` (stereo not drawn) [Example 133, 2-iodo-1-methyl-4-(1-methylpiperidin-4-yloxy)-9,10-dihydro-4H-3,10a-diaza-benzo[f]azulene] are 59 °C and < 300 nM.
In turn, `Cc1c(C(=O)N(C)Cc2ccccc2)nc2n1CCc1ccccc1C2OC1CCN(C)CC1` (stereo not drawn) [Example 203, 1-methyl-4-(1-methylpiperidin-4-yloxy)-9,10-dihydro-4H-3,10a-diaza-benzo[f]azulene-2-carboxylic acid benzylmethylamide] registered a melting point of 61 °C. Further, the Ki on human H4 receptor is < 1000 nM.
For the compound `Cc1c(C(O)c2ccccc2)nc2n1CCc1ccccc1C2OC1CCN(C)CC1.O=CO` (stereo not drawn) [Example 201, [1-methyl-4-(1-methylpiperidin-4-yloxy)-9,10-dihydro-4H-3,10a-diaza-benzo[f]azulen-2-yl]phenylmethanol, formic acid salt], the melting point amounted to 85 °C. The Ki on human H4 receptor was < 1000 nM.
`Cc1c(-c2ccc(C3=CCN(C(=O)OC(C)(C)C)CC3)cc2)nc2n1CCc1ccccc1C2OC1CCN(C)CC1` (stereo not drawn) [Example 168, 4-{4-[1-methyl-4-(1-methyl-piperidin-4-yloxy)-9,10-dihydro-4H-3,10a-diaza-benzo[f]azulen-2-yl]-phenyl}-3,6-dihydro-2H-pyridine-1-carboxylic acid tert-butyl ester] came in with a melting point of 171 °C. Further, the Ki at human H4 receptor is < 30 nM.
`Cc1c(-c2ccc(N3CCOC3=O)cc2)nc2n1CCc1ccccc1C2OC1CCN(C)CC1` (stereo not drawn) [Example 131, 3-{4-[1-methyl-4-(1-methylpiperidin-4-yloxy)-9,10-dihydro-4H-3,10a-diaza-benzo[f]azulen-2-yl]-phenyl}-oxazolidin-2-one] yielded a melting point of 214 °C. On human H4 receptor, the Ki is < 300 nM.
Regarding `C=CCCc1cccc2c1CCn1cc(-c3ccccc3)nc1C2OC1CCN(C)CC1.O=C(O)C(=O)O` (stereo not drawn) [Example 237, 8-but-3-enyl-4-(1-methylpiperidin-4-yloxy)-2-phenyl-9,10-dihydro-4H-3,10a-diaza-benzo[f]azulene, oxalate], the melting point was 107 °C. On human H4 receptor, the Ki was < 1000 nM.
Taken in the same sequence, the figures for `CN1CCC(OC2c3cccc(CCc4ccccc4)c3CCn3cc(-c4ccccc4)nc32)CC1` (stereo not drawn) [Example 249, 4-(1-methyl-piperidin-4-yloxy)-8-phenethyl-2-phenyl-9,10-dihydro-4H-3,10a-diaza-benzo[f]azulene] were 67 °C and < 1000 nM.
Taken in the same sequence, the figures for `CNc1cccc2c1CCn1cc(-c3ccccc3)nc1C2OC1CCN(C)CC1` (stereo not drawn) [Example 244, methyl-[4-(1-methylpiperidin-4-yloxy)-2-phenyl-9,10-dihydro-4H-3,10a-diaza-benzo[f]azulen-8-yl]-amine] were 189 °C and < 1000 nM.
Taken in the same sequence, the figures for `CN1CCC(OC2c3ccccc3CCn3cc(-c4ccc(NC(=O)C(C)(C)C)cc4)nc32)CC1` (stereo not drawn) [Example 58, 2,2-dimethyl-N-{4-[4-(1-methylpiperidin-4-yloxy)-9,10-dihydro-4H-3,10a-diaza-benzo[f]azulen-2-yl]-phenyl}-propionamide] were 120 °C and < 300 nM.
`CN1CC(COC2c3ccccc3CCn3cc(I)nc32)C1` (stereo not drawn) [Example 7, 2-Iodo-4-(1-methylazetidin-3-ylmethoxy)-9,10-dihydro-4H-3,10a-diaza-benzo[f]azulene] yielded a melting point of 100 °C. Besides, the Ki on human H4 receptor is < 1000 nM.
With `CN1CCC(OC2c3cccc(Cc4ccccc4)c3CCn3cc(-c4ccccc4)nc32)CC1` (stereo not drawn) [Example 233, 8-benzyl-4-(1-methylpiperidin-4-yloxy)-2-phenyl-9,10-dihydro-4H-3,10a-diaza-benzo[f]azulene], the melting point came out at 66 °C. Moreover, the Ki at human H4 receptor is < 1000 nM.
The corresponding values for `CN1CCC(OC2c3ccc(Br)cc3CCn3cc(-c4ccccc4)nc32)CC1` (stereo not drawn) [Example 261, 7-bromo-4-(1-methylpiperidin-4-yloxy)-2-phenyl-9,10-dihydro-4H-3,10a-diaza-benzo[f]azulene] are 92 °C and < 300 nM.
Taken in the same sequence, the figures for `C=C(C)Cc1nc2n(c1CC(=C)C)CCc1ccccc1C2OC1CCN(C)CC1.O=C(O)C(=O)O.O=C(O)C(=O)O` (stereo not drawn) [Example 267, 1,2-bis-(2-methylallyl)-4-(1-methylpiperidin-4-yloxy)-9,10-dihydro-4H-3,10a-diaza-benzo[f]azulene dioxalate] were 70 °C and < 300 nM.
The corresponding values for `CN1CCC(OC2c3ccccc3CCn3c(I)cnc32)CC1` (stereo not drawn) [Example 3, 1-iodo-4-(1-methylpiperidin-4-yloxy)-9,10-dihydro-4H-3,10a-diaza-benzo[f]azulene] are 163 °C and < 300 nM.
In turn, `CN1CCC(OC2c3ccccc3CCn3c2nc(I)c3C#N)CC1` (stereo not drawn) [Example 221, 2-iodo-4-(1-methylpiperidin-4-yloxy)-9,10-dihydro-4H-3,10a-diaza-benzo[f]azulene-1-carbonitrile] registered a melting point of 195 °C. Besides, the Ki at human H4 receptor was < 1000 nM.
The corresponding values for `Cc1c(C(=O)N(C)c2ccccc2)nc2n1CCc1ccccc1C2OC1CCN(C)CC1` (stereo not drawn) [Example 204, 1-methyl-4-(1-methylpiperidin-4-yloxy)-9,10-dihydro-4H-3,10a-diaza-benzo[f]azulene-2-carboxylic acid methylphenylamide] are 75 °C and < 1000 nM.

Source of the values: patent US9255101B2 (BIOPROJECT, priority 2012, dated 2016).
